# ± gives the expanded uncertainty stated by the source.
# Test: molar heat capacity at constant pressure
# Conditions: 101.33 kPa
structure (smiles),measurement,setting,value
CCCC(C)O (stereo not drawn) [pentan-2-ol],molar heat capacity at constant pressure,"79.67 K, Glass",63.18 ± 1.6 J/K/mol
same,molar heat capacity at constant pressure,"80.46 K, Glass",63.33 ± 1.6 J/K/mol
same,molar heat capacity at constant pressure,"82.3 K, Glass",64.14 ± 1.6 J/K/mol
same,molar heat capacity at constant pressure,"84.42 K, Glass",67.58 ± 1.7 J/K/mol
same,molar heat capacity at constant pressure,"85.14 K, Glass",66.47 ± 1.7 J/K/mol
same,molar heat capacity at constant pressure,"85.32 K, Glass",67.84 ± 1.7 J/K/mol
same,molar heat capacity at constant pressure,"86.75 K, Glass",68.64 ± 1.7 J/K/mol
same,molar heat capacity at constant pressure,"87.94 K, Glass",69.06 ± 1.7 J/K/mol
same,molar heat capacity at constant pressure,"88.7 K, Glass",70.03 ± 1.7 J/K/mol
same,molar heat capacity at constant pressure,"90.63 K, Glass",71.1 ± 2.1 J/K/mol
same,molar heat capacity at constant pressure,"90.73 K, Glass",70.94 ± 2.1 J/K/mol
same,molar heat capacity at constant pressure,"92.44 K, Glass",69.53 ± 2.1 J/K/mol
same,molar heat capacity at constant pressure,"92.56 K, Glass",72.26 ± 2.2 J/K/mol
same,molar heat capacity at constant pressure,"93.14 K, Glass",65.87 ± 2 J/K/mol
same,molar heat capacity at constant pressure,"93.54 K, Glass",72.61 ± 2.1 J/K/mol
same,molar heat capacity at constant pressure,"94.47 K, Glass",69.28 ± 2.1 J/K/mol
same,molar heat capacity at constant pressure,"94.5 K, Glass",73.35 ± 2.1 J/K/mol
same,molar heat capacity at constant pressure,"95.82 K, Glass",74.84 ± 2.2 J/K/mol
same,molar heat capacity at constant pressure,"96.37 K, Glass",74.28 ± 2.1 J/K/mol
same,molar heat capacity at constant pressure,"96.39 K, Glass",69.82 ± 2.2 J/K/mol
same,molar heat capacity at constant pressure,"96.44 K, Glass",74.4 ± 2.1 J/K/mol
same,molar heat capacity at constant pressure,"96.51 K, Glass",73.84 ± 2.1 J/K/mol
same,molar heat capacity at constant pressure,"97.85 K, Glass",74.9 ± 2.2 J/K/mol
same,molar heat capacity at constant pressure,"98.3 K, Glass",70.93 ± 2.4 J/K/mol
same,molar heat capacity at constant pressure,"98.39 K, Glass",75.87 ± 2.4 J/K/mol
same,molar heat capacity at constant pressure,"99.21 K, Glass",76.42 ± 2.2 J/K/mol
same,molar heat capacity at constant pressure,"99.81 K, Glass",76.63 ± 2.2 J/K/mol
same,molar heat capacity at constant pressure,"100.21 K, Glass",72.31 ± 2.1 J/K/mol
same,molar heat capacity at constant pressure,"100.33 K, Glass",77.32 ± 2.4 J/K/mol
same,molar heat capacity at constant pressure,"101.76 K, Glass",76.89 ± 2.2 J/K/mol
same,molar heat capacity at constant pressure,"102.06 K, Glass",77.9 ± 2.2 J/K/mol
same,molar heat capacity at constant pressure,"102.12 K, Glass",72.26 ± 2.1 J/K/mol
same,molar heat capacity at constant pressure,"102.28 K, Glass",78.12 ± 2.3 J/K/mol
same,molar heat capacity at constant pressure,"103.71 K, Glass",77.71 ± 2.2 J/K/mol
same,molar heat capacity at constant pressure,"104.04 K, Glass",72.83 ± 2.1 J/K/mol
same,molar heat capacity at constant pressure,"104.24 K, Glass",78.97 ± 2.2 J/K/mol
same,molar heat capacity at constant pressure,"104.91 K, Glass",79.34 ± 2.2 J/K/mol
same,molar heat capacity at constant pressure,"105.66 K, Glass",79.19 ± 2.2 J/K/mol
same,molar heat capacity at constant pressure,"105.95 K, Glass",74.19 ± 2.1 J/K/mol
same,molar heat capacity at constant pressure,"106.19 K, Glass",80.14 ± 2.3 J/K/mol
same,molar heat capacity at constant pressure,"107.61 K, Glass",80.61 ± 2.3 J/K/mol
same,molar heat capacity at constant pressure,"107.78 K, Glass",81.22 ± 2.3 J/K/mol
same,molar heat capacity at constant pressure,"107.87 K, Glass",75.02 ± 2.2 J/K/mol
same,molar heat capacity at constant pressure,"108.15 K, Glass",81.83 ± 2.3 J/K/mol
same,molar heat capacity at constant pressure,"109.56 K, Glass",81.6 ± 2.3 J/K/mol
same,molar heat capacity at constant pressure,"109.78 K, Glass",76.24 ± 2.2 J/K/mol
same,molar heat capacity at constant pressure,"110.11 K, Glass",83.03 ± 2.3 J/K/mol
same,molar heat capacity at constant pressure,"110.65 K, Glass",82.72 ± 2.3 J/K/mol
same,molar heat capacity at constant pressure,"111.51 K, Glass",82.56 ± 2.4 J/K/mol
same,molar heat capacity at constant pressure,"111.7 K, Glass",77.13 ± 2.2 J/K/mol
same,molar heat capacity at constant pressure,"112.08 K, Glass",84.03 ± 2.3 J/K/mol
same,molar heat capacity at constant pressure,"113.47 K, Glass",83.55 ± 2.4 J/K/mol
same,molar heat capacity at constant pressure,"113.52 K, Glass",84.21 ± 2.5 J/K/mol
same,molar heat capacity at constant pressure,"113.62 K, Glass",77.89 ± 2.2 J/K/mol
same,molar heat capacity at constant pressure,"114.05 K, Glass",85.23 ± 2.4 J/K/mol
same,molar heat capacity at constant pressure,"115.43 K, Glass",84.36 ± 2.6 J/K/mol
same,molar heat capacity at constant pressure,"115.53 K, Glass",78.83 ± 2.5 J/K/mol
same,molar heat capacity at constant pressure,"116.02 K, Glass",86.13 ± 2.4 J/K/mol
same,molar heat capacity at constant pressure,"116.41 K, Glass",85.6 ± 2.4 J/K/mol
same,molar heat capacity at constant pressure,"117.39 K, Glass",85.19 ± 3 J/K/mol
same,molar heat capacity at constant pressure,"117.45 K, Glass",79.39 ± 3 J/K/mol
same,molar heat capacity at constant pressure,"117.99 K, Glass",86.99 ± 2.4 J/K/mol
same,molar heat capacity at constant pressure,"119.31 K, Glass",86.83 ± 3.2 J/K/mol
same,molar heat capacity at constant pressure,"119.36 K, Glass",85.74 ± 2.4 J/K/mol
same,molar heat capacity at constant pressure,"119.37 K, Glass",80.16 ± 3.2 J/K/mol
same,molar heat capacity at constant pressure,"119.97 K, Glass",87.03 ± 2.4 J/K/mol
same,molar heat capacity at constant pressure,"121.3 K, Glass",80.85 ± 2.3 J/K/mol
same,molar heat capacity at constant pressure,"121.33 K, Glass",86.41 ± 2.4 J/K/mol
same,molar heat capacity at constant pressure,"121.95 K, Glass",88.36 ± 2.4 J/K/mol
same,molar heat capacity at constant pressure,"122.2 K, Glass",88.5 ± 2.4 J/K/mol
same,molar heat capacity at constant pressure,"123.23 K, Glass",82.6 ± 2.9 J/K/mol
same,molar heat capacity at constant pressure,"123.29 K, Glass",88 ± 3 J/K/mol
same,molar heat capacity at constant pressure,"123.94 K, Glass",89.95 ± 2.4 J/K/mol
same,molar heat capacity at constant pressure,"125.11 K, Glass",91.4 ± 2.5 J/K/mol
same,molar heat capacity at constant pressure,"125.15 K, Glass",84.47 ± 2.5 J/K/mol
same,molar heat capacity at constant pressure,"125.26 K, Glass",89.98 ± 2.4 J/K/mol
same,molar heat capacity at constant pressure,"125.92 K, Glass",92.63 ± 2.5 J/K/mol
same,molar heat capacity at constant pressure,"127.07 K, Glass",88.92 ± 2.6 J/K/mol
same,molar heat capacity at constant pressure,"127.21 K, Glass",95.14 ± 2.7 J/K/mol
same,molar heat capacity at constant pressure,"134.18 K, Liquid",138.36 ± 3.4 J/K/mol
same,molar heat capacity at constant pressure,"134.47 K, Liquid",145.14 ± 3.5 J/K/mol
same,molar heat capacity at constant pressure,"135.24 K, Liquid",146.4 ± 3.5 J/K/mol
same,molar heat capacity at constant pressure,"136 K, Liquid",146.52 ± 3.5 J/K/mol
same,molar heat capacity at constant pressure,"136.05 K, Liquid",138.34 ± 3.4 J/K/mol
same,molar heat capacity at constant pressure,"136.39 K, Liquid",145.03 ± 3.5 J/K/mol
same,molar heat capacity at constant pressure,"137.22 K, Liquid",146.29 ± 3.5 J/K/mol
same,molar heat capacity at constant pressure,"137.97 K, Liquid",138.35 ± 3.4 J/K/mol
same,molar heat capacity at constant pressure,"138.36 K, Liquid",145.17 ± 3.5 J/K/mol
same,molar heat capacity at constant pressure,"138.84 K, Liquid",146.59 ± 3.5 J/K/mol
same,molar heat capacity at constant pressure,"139.21 K, Liquid",146.22 ± 3.5 J/K/mol
same,molar heat capacity at constant pressure,"139.9 K, Liquid",138.69 ± 3.4 J/K/mol
same,molar heat capacity at constant pressure,"140.33 K, Liquid",145.48 ± 3.5 J/K/mol
same,molar heat capacity at constant pressure,"141.2 K, Liquid",146.34 ± 3.5 J/K/mol
same,molar heat capacity at constant pressure,"141.77 K, Liquid",146.74 ± 3.5 J/K/mol
same,molar heat capacity at constant pressure,"141.83 K, Liquid",139.02 ± 3.4 J/K/mol
same,molar heat capacity at constant pressure,"142.3 K, Liquid",145.81 ± 3.5 J/K/mol
same,molar heat capacity at constant pressure,"143.19 K, Liquid",146.48 ± 3.5 J/K/mol
same,molar heat capacity at constant pressure,"143.77 K, Liquid",139.32 ± 3.4 J/K/mol
same,molar heat capacity at constant pressure,"144.73 K, Liquid",146.91 ± 3.5 J/K/mol
same,molar heat capacity at constant pressure,"145.18 K, Liquid",146.45 ± 3.5 J/K/mol
same,molar heat capacity at constant pressure,"147.18 K, Liquid",146.59 ± 3.5 J/K/mol
same,molar heat capacity at constant pressure,"147.68 K, Liquid",147.17 ± 3.5 J/K/mol
same,molar heat capacity at constant pressure,"149.17 K, Liquid",146.66 ± 3.5 J/K/mol
same,molar heat capacity at constant pressure,"150.63 K, Liquid",147.42 ± 3.5 J/K/mol
same,molar heat capacity at constant pressure,"151.16 K, Liquid",146.74 ± 3.5 J/K/mol
same,molar heat capacity at constant pressure,"153.16 K, Liquid",146.86 ± 3.5 J/K/mol
same,molar heat capacity at constant pressure,"153.58 K, Liquid",147.65 ± 3.5 J/K/mol
same,molar heat capacity at constant pressure,"155.16 K, Liquid",147.04 ± 3.5 J/K/mol
same,molar heat capacity at constant pressure,"156.54 K, Liquid",148.06 ± 3.6 J/K/mol
same,molar heat capacity at constant pressure,"157.16 K, Liquid",147.26 ± 3.5 J/K/mol
same,molar heat capacity at constant pressure,"159.16 K, Liquid",147.41 ± 3.5 J/K/mol
same,molar heat capacity at constant pressure,"159.5 K, Liquid",148.35 ± 3.6 J/K/mol
same,molar heat capacity at constant pressure,"161.15 K, Liquid",147.59 ± 3.5 J/K/mol
same,molar heat capacity at constant pressure,"162.46 K, Liquid",148.75 ± 3.6 J/K/mol
same,molar heat capacity at constant pressure,"163.15 K, Liquid",147.87 ± 3.5 J/K/mol
same,molar heat capacity at constant pressure,"165.15 K, Liquid",148.07 ± 3.6 J/K/mol
same,molar heat capacity at constant pressure,"165.42 K, Liquid",149.14 ± 3.6 J/K/mol
same,molar heat capacity at constant pressure,"167.15 K, Liquid",148.38 ± 3.6 J/K/mol

# Source: the NIST ThermoML archive (doi:10.1021/je060411g)
